Laboratory results as given in paper PMC10285648, “iTAG an optimized IMiD-induced degron for targeted protein degradation in human and murine cells” (iScience, 2023).

What was measured:
Format in all cases: cell-based, human
[1] = test system: N-terminally tagged cMYC, RBM39, BRD4 (Flag-HA-DCD23 or Flag-HA-FKBP12^[F36V]); test: Western blotting, iTAG versus dTAG fused proteins in SUM159; conditions: SUM159, dTAG-13 on dTAG, CC220 on iTAG
Method: The fusion constructs were stably expressed in SUM159 cells and loss of protein was determined by western blotting.
The protein lysates were probed for HA using western blotting. […] The protein lysates were probed for HA using western blotting. […] Median EGFP intensity was measured in each condition using flow cytometry. (3 independent experiments, represented as mean ± SD).
The dTAG system has also been adapted to direct targets to the E3 CRL2^VHL using the PROTAC dTAG^V-1^16. […] We evaluated the degradation N-terminally tagged cMYC and RBM39 dTAG^V-1, we included BRD4 as a control as it was reported to be a well degraded target in the initial dTAG optimization (Figure 3C).[15]
For the pHAGE-PGK constructs: DCD23, SuperDegron and FKBP12^F36V were separately cloned into a pHAGE-PGK DEST backbone. cDNA encoding the indicated protein was then cloned from pENTR221 into the pHAGE-PGK-DCD23, pHAGE-PGK-SuperDegron or pHAGE-PGK-FKBPF36V DEST vector using Gateway cloning. SUM159 cells were transduced with the indicated lentivirus and selected with puromycin.
Cells were lysed with SDS lysis buffer (2% SDS, 10% Glycerol, 50mM Tris pH 6.8) and boiled at 95°C for 30min. Protein concentration was measured using Pierce BCA Protein Assay Kit (ThermoFischer) following manufacturer’s recommendations. Samples were ran in NuPAGETM 10% Bis-Tris Midi electrophoresis gels (Invitrogen) using NuPAGETM MES SDS running buffer (ThermoFischer Scientific). Proteins were subsequently transferred to an Immobilon-P polyvinylidene Difluoride (PVDF) membrane (Merck Millipore) using the wet-transfer method (Bio-Rad) in a transfer buffer consisting of 20% (v/v) methanol and 10% protein electrophoresis buffer (24.77 mM Tris and 0.192 M glycine).
For western blotting membranes were blocked in a solution of 5% (w/v) bovine serum albumin (BSA; Sigma-Aldrich) dissolved in TBS-0.1% Tween 20 (Sigma-Aldrich) then incubated at 4°C overnight with the primary antibodies diluted in 5% (w/v) BSA/TBS-T. The membranes where then washed and incubated with anti-mouse and/or anti-rabbit secondary antibodies (LI-COR Biosciences) for 2h at RT diluted in 5% (w/v) BSA/TBS-T then washed and imaged using the LI-COR Odyssey (LI-COR Biosciences). Images were analyzed using Image Studio Lite software (LI-COR Biosciences).

[2] = test system: HMEC, HEK293T, MDA-MB-231, Kelly cells; test: Cell viability assay (CellTiter-Blue); conditions: 5 days treatment
Method: By endpoint, CellTiter-Blue reagent (Promega) was added to each well, incubated for 3 h at 37°C and absorbance was measured with a plate reader at 570nm. Average background absorbance value was subtracted from all readings when plotting the viability curve.

[3] = test system: FLuc-EGFP-DCD23; test: In vitro luciferase and EGFP signal in MDA-MB-231 (FLuc-EGFP-DCD23); conditions: MDA-MB-231, in vitro
[4] = test system: N and C-terminally tagged KRAS^[G12V] and EZH2 (DCD23); test: Flow cytometry of EGFP signal, DCD23-tagged KRAS G12V and EZH2 in HMEC; conditions: 10uM, 4h
From the text: We tagged the proteins with DCD23 constructs, fused either to their N-terminus or C-terminus (Figures 2A and 2B). We stably transduced HMEC cells with these constructs and assessed their degradation. Cellular treatment with all degraders led to a decrease in the EGFP signal of the N and C-terminally tagged KRAS^[G12V] and EZH2 (Figures 2A and 2B).
Figure 2 Degradation of cytoplasmic and nuclear targets using iTAG (A) HMEC cells expressing N-terminally tagged DCD23-EGFP-KRAS^[G12V], DCD23-EGFP-EZH2, DCD23-EGFP-cMYC or their corresponding P2A control were induced with doxycycline for 24h then treated with either DMSO or the different indicated drugs at a concentration of 10uM for 4h. Median EGFP intensity was measured in each condition using flow cytometry and normalized values were represent in the Log2 Fold change relative to the DMSO control. […] Median EGFP intensity was measured in each condition using flow cytometry and normalized values were represent in the Log2 Fold Change relative to the DMSO control. […]
Cells stably transduced with the iTAG tagged constructs were treated with 1 μg/mL of doxycycline for 24h to induce constructs expression. […] EGFP signal was measured using BD LSR II flow cytometer (BD Biosciences). […]

[5] = test system: DCD23-EGFP-KRAS^[G12V]; test: Western blotting for KRAS G12V and p-MEK1(T292) in HMEC; conditions: 10uM, 48h
Method: Figure 2 Degradation of cytoplasmic and nuclear targets using iTAG (A) HMEC cells expressing N-terminally tagged DCD23-EGFP-KRAS^[G12V], DCD23-EGFP-EZH2, DCD23-EGFP-cMYC or their corresponding P2A control were induced with doxycycline for 24h then treated with either DMSO or the different indicated drugs at a concentration of 10uM for 4h. Median EGFP intensity was measured in each condition using flow cytometry and normalized values were represent in the Log2 Fold change relative to the DMSO control. (B) HMEC cells expressing Dox inducible C-terminally tagged KRAS^[G12V]-EGFP-DCD23, EZH2-EGFP-DCD23 or their corresponding P2A control were induced with doxycycline for 24h then treated with either DMSO or the different indicated drugs at a concentration of 10uM for 4h. Median EGFP intensity was measured in each condition using flow cytometry and normalized values were represent in the Log2 Fold Change relative to the DMSO control. […]
We then analyzed the functional consequences of KRAS^[G12V]-induced degradation. […] Subsequently, we analyzed the functional consequences of KRAS^[G12V]-induced degradation. […]
Cells were lysed with SDS lysis buffer (2% SDS, 10% Glycerol, 50mM Tris pH 6.8) and boiled at 95°C for 30min. Protein concentration was measured using Pierce BCA Protein Assay Kit (ThermoFischer) following manufacturer’s recommendations. […]

O=C1CC[C@H](N2Cc3c(OCc4ccc(CN5CCOCC5)cc4)cccc3C2=O)C(=O)N1 [CC220, Iberdomide]
concentrations at which targets are degraded [1]: 0.01 to 10 µM
time of onset of degradation of cMYC and RBM39 ([1]; 1, 2 or 4h): ≤ 1 h
cellular toxicity [2]: did not induce cellular toxicity
lowest concentration giving decrease in luciferase and EGFP signal [3]: ≤ 0.05 µM
time to decrease in luciferase and EGFP signal [3]: ≤ 3 h
change of EGFP signal [4]: most active degrader
MEK1 (T292) phosphorylation after degradation of N-terminally tagged KRAS G12V [5]: concomitant decrease in MEK1 (T292) phosphorylation
